# “And” between values parts separate entries of the source, which are not always exact repeats. Equal values may be shown once. Read-outs that look alike come from different tables or passages of the source.
# How the values were obtained:
# [1] = tested on: E. coli JM83; conditions: DHCP 250 μM, Phadtare et al., 2001, cited from earlier work
# [2] = tested on: AI-2 activity, V. harveyi reporter strain BB170; conditions: Schauder et al., 2001; cited from earlier work
# [3] = tested on: E. coli wild-type strain JM83 (gene expression); assay: DNA microarray analysis of mRNA levels in DHCP-treated vs control cells; type: cell-based; conditions: DHCP 250 μM, 8 h
# Method: E. coli wild-type strain JM83 [F^− araΔ(lac-proAB) rpsL(str^r)] (Yanisch-Perron et al., 1985) was grown in Luria broth (LB). V. harveyi strains BB152 and BB170 were a gift from Dr. Bonnie Bassler (Princeton University). These strains were grown in AB medium as described previously (Surette et al., 1999).
# E. coli cells grown overnight in LB medium were diluted into fresh LB medium. After the growth reached a Klett unit of 50, DHCP was added (250 μM) and growth was further monitored. After growth reached a Klett unit of 90-100, it was diluted 10-fold into a medium containing the same concentration of DHCP as described previously (Phadtare et al., 2001). The cells were harvested after a total of 8 h of incubation with DHCP. […] The total RNA was extracted by the hot phenol method described previously (Sarmientos et al., 1983). It was further purified by RNeasy Minikit (Qiagen) and was then treated with DNase I followed by phenol-chloroform treatment and ethanol precipitation. It was quantified by measuring absorbance at 260 nm. The purity of RNA was confirmed by agarose gel electrophoresis.
# The mRNAs were labeled with Cy3-dUTP and Cy5-dUTP (Amersham Pharmacia). Random Hexamer pd(N)6 (Amersham Pharmacia) was used as a primer and the IntelliGene E. coli CHIP Version 1 (Takara Shuzo, Co. Ltd., Japan) the DNA microarray was used. This represents the entire ORF of E. coli K-12 W3110.
# The cell densities of the control (untreated) and the DHCP-treated cells used were the same; thus, the changes seen in the microarray were not substantially influenced by the difference in cell densities. RNAs isolated from the respective cells were used to generate probes for hybridization of DNA arrays and the data were quantified as described in the Materials and Methods section of this Example. Calculation of the log expression ratios of the corresponding spots allowed pair-wise comparisons of the relative transcript levels for each of the E. coli genes under the two growth conditions. Only those genes whose expression levels differed by log ratio of at least four were considered. In some cases, genes belonging to same operon or category were considered even if the log ratios differed by the factor of only three or little less than three. Log ratios above zero value indicate induction and below zero value indicate repression by DHCP treatment. […] The results of both methods are in agreement with each other.
smiles,measurement,setting,value
"O=C1C=CC(O)C1O (centres unmarked) [DHCP, 4,5-dihydroxy-2-cyclopenten-1-one]",Growth of E. coli JM83,[1]; after 3 h of incubation,severely impaired
same,Growth of E. coli JM83,[1]; after 5 h,stopped growing
same,Activity as AI-2 candidate in the screening assay,[2],did not show any activity
same,Increase of mRNA levels,"[3]; Cys regulon genes cysA, cysD, cysH, cysI, cysJ, cysk, cysM, cysN, cysP, cysQ, cysU, cysW",3-20 times
same,Ratio (DHCP-treated/control),[3]; gene CysH (Adenylsulphate reductase),6.50
same,Ratio (DHCP-treated/control),[3]; gene CysI (Sulfite reductase(NADPH) alpha subunit),7.30
same,Ratio (DHCP-treated/control),[3]; gene CysJ (Sulfite reductase(NADPH) beta subunit),4.70
same,Ratio (DHCP-treated/control),[3]; gene CysK (Cysteine synthase),20
same,Ratio (DHCP-treated/control),[3]; gene CysM (O-acetylserine (thiol)-lyase B),3.00
same,Ratio (DHCP-treated/control),[3]; gene CysN (Sulfate adenylyltransferase),5.00
same,Ratio (DHCP-treated/control),[3]; gene CysP (Thiosulfate-binding protein CysP precursor),3.55
same,Ratio (DHCP-treated/control),[3]; gene CysQ (Ammonium transport protein CysQ),3.28
same,Ratio (DHCP-treated/control),[3]; gene CysW (Sulfate/thiosulfate transport protein CysW),15.00
same,Ratio (DHCP-treated/control),"[3]; gene EntA (2,3-dihydro-2,3-dihydroxybenzoate)",0.44
same,Ratio (DHCP-treated/control),[3]; gene EntB (Isochorismatase),0.23
same,Ratio (DHCP-treated/control),[3]; gene EntC (Isochorismate synthase),0.45
same,Ratio (DHCP-treated/control),[3]; gene EntE (Enterochelin synthetase),0.32
same,Ratio (DHCP-treated/control),"[3]; gene Fbp (Fructose-1,6-biphosphatase)",4.00
same,Ratio (DHCP-treated/control),[3]; gene FruB (PTS system),0.12
same,Ratio (DHCP-treated/control),[3]; gene FruK (I-phosphofructokinase),0.03
same,Ratio (DHCP-treated/control),[3]; gene GalM (Aldose 1-epimerase),4.00
same,Ratio (DHCP-treated/control),[3]; gene Gale (UDP-glucose 4-epimerase),4.60
same,Ratio (DHCP-treated/control),[3]; gene MarA (Multiple antibiotic resistance protein MarA),5
same,Ratio (DHCP-treated/control),[3]; gene MdaB (Modulator of drug activity),10
same,Ratio (DHCP-treated/control),[3]; gene TalA (Patatire transaldolase),7.6
same,Ratio (DHCP-treated/control),[3]; gene TehB (Tellurite resistance protein TehB),5
same,Ratio (DHCP-treated/control),[3]; gene YidS (unknown function or class),4
same,Ratio (DHCP-treated/control),[3]; gene ZipA (Cell division protein),4.50
same,Decrease of mRNA level,[3]; gene ackA,3.6 times
same,Ratio (DHCP-treated/control),[3]; gene ansP (L-asparagine permease),0.29
same,Ratio (DHCP-treated/control),[3]; gene atoE (Short-chain fatty acids),0.17
same,Ratio (DHCP-treated/control),[3]; gene atzN (Zinc-transporting ATPase),11 and 11.30
same,Ratio (DHCP-treated/control),[3]; gene cheA (Chemotaxis protein CheA),0.25
same,Ratio (DHCP-treated/control),[3]; gene cpxP (Periplasmic protein precursor),4.95
same,Ratio (DHCP-treated/control),[3]; gene creD (Inner-membrane protein CreD),47
same,Ratio (DHCP-treated/control),[3]; gene cysU (Sulfate transport system permease),4.99
same,Ratio (DHCP-treated/control),[3]; gene czcD (Cation efflux protein CzcD),3.60
same,Ratio (DHCP-treated/control),[3]; gene dps (DNA-binding protein Dps),13
same,Ratio (DHCP-treated/control),[3]; gene fadL (Long-chain fatty acid transport protein),0.10
same,Ratio (DHCP-treated/control),[3]; gene fecA (Iron(III) dicitrate transport protein FecA),0.16
same,Ratio (DHCP-treated/control),[3]; gene fecB (Iron(III) dicitrate-binding protein),0.15
same,Ratio (DHCP-treated/control),[3]; gene fecC (FecC protein),0.21
same,Ratio (DHCP-treated/control),[3]; gene fecD (Iron(III) dicitrate transport system protein),0.15
same,Ratio (DHCP-treated/control),[3]; gene fecE (Iron(III) dicitrate transport protein),0.11
same,Ratio (DHCP-treated/control),[3]; gene fepA (Ferrienterochelin receptor precursor),0.25
same,Ratio (DHCP-treated/control),[3]; gene fepC (Ferric enterobactin transport protein FepC),0.40
same,Inhibition of mRNA level,[3]; gene fruB,8 times
same,Inhibition of mRNA level,[3]; gene fruK,33 times
same,Ratio (DHCP-treated/control),[3]; gene glf (UDP-galactopyranose mutase),0.20
same,Ratio (DHCP-treated/control),[3]; gene hdeB (10k-1 protein precursor),6.00
same,Ratio (DHCP-treated/control),[3]; gene katG (Catalase HPI),9.00
same,Ratio (DHCP-treated/control),[3]; gene lysP (Lysin-specific permease),0.16
same,Ratio (DHCP-treated/control),[3]; gene motA (Chemotaxis protein MotA),0.18
same,Ratio (DHCP-treated/control),[3]; gene motB (Chemotaxis protein MotB),0.40
same,Ratio (DHCP-treated/control),[3]; gene msyB (Membrane protein),4.25
same,Ratio (DHCP-treated/control),[3]; gene nmpC (Outer membrane porin protein precursor),0.01
same,Ratio (DHCP-treated/control),[3]; gene ompA (Outer membrane protein a precursor),0.23
same,Ratio (DHCP-treated/control),[3]; gene ompC (Outer membrane protein c precursor),0.20
same,Ratio (DHCP-treated/control),[3]; gene ompF (Outer membrane protein f precursor),0.06
same,Ratio (DHCP-treated/control),[3]; gene ompT (ProteinaseVII),0.11
same,Ratio (DHCP-treated/control),[3]; gene osmY (Hyperosmotically induced protein),12.00
same,Ratio (DHCP-treated/control),[3]; gene otsA (Tehalose-6-phosphate synthase),11.00
same,Ratio (DHCP-treated/control),[3]; gene pheP (phenylalanine transport protein pheP),0.13
same,Ratio (DHCP-treated/control),[3]; gene plsX (PlsX protein),0.28
same,Ratio (DHCP-treated/control),[3]; gene potA (Spermidine/putrescine transport protein A),0.13
same,Ratio (DHCP-treated/control),[3]; gene potB (Spermidine/putrescine transport system),0.13
same,Ratio (DHCP-treated/control),[3]; gene potC (Spermidine/putrescine transport system),0.20
same,Ratio (DHCP-treated/control),[3]; gene potD (Spermidine/putrescine transport protein D),0.19
same,Ratio (DHCP-treated/control),[3]; gene poxB (Pyruvate dehydrogenase),15.00
same,Ratio (DHCP-treated/control),[3]; gene rfc (Probably O-antigen polymerase),0.23
same,Ratio (DHCP-treated/control),[3]; gene rplA (Ribosomal protein L1),0.23
same,Ratio (DHCP-treated/control),[3]; gene rplB (Ribosomal protein L2),0.25
same,Ratio (DHCP-treated/control),[3]; gene rplC (Ribosomal protein L3),0.28
same,Ratio (DHCP-treated/control),[3]; gene rplD (Ribosomal protein L4),0.27
same,Ratio (DHCP-treated/control),[3]; gene rplE (Ribosomal protein L5),0.34
same,Ratio (DHCP-treated/control),[3]; gene rplF (Ribosomal protein L6),0.30
same,Ratio (DHCP-treated/control),[3]; gene rplI (Ribosomal protein L9),0.25
same,Ratio (DHCP-treated/control),[3]; gene rplJ (Ribosomal protein L10),0.28
same,Ratio (DHCP-treated/control),[3]; gene rplK (Ribosomal protein L11),0.39
same,Ratio (DHCP-treated/control),[3]; gene rplM (Ribosomal protein L13),0.49
same,Ratio (DHCP-treated/control),[3]; gene rplN (Ribosomal protein L14),0.44
same,Ratio (DHCP-treated/control),[3]; gene rplO (Ribosomal protein L15),0.36
same,Ratio (DHCP-treated/control),[3]; gene rplP (Ribosomal protein L16),0.36
same,Ratio (DHCP-treated/control),[3]; gene rplQ (Ribosomal protein L17),0.47
same,Ratio (DHCP-treated/control),[3]; gene rplR (Ribosomal protein L18),0.38
same,Ratio (DHCP-treated/control),[3]; gene rplS (Ribosomal protein L19),0.35
same,Ratio (DHCP-treated/control),[3]; gene rplV (Ribosomal protein L22),0.28
same,Ratio (DHCP-treated/control),[3]; gene rplW (Ribosomal protein L23),0.27
same,Ratio (DHCP-treated/control),[3]; gene rplX (Ribosomal protein L24),0.31
same,Ratio (DHCP-treated/control),[3]; gene rplY (Ribosomal protein L25),0.28
same,Ratio (DHCP-treated/control),[3]; gene rpmB (Ribosomal protein L28),0.45
same,Ratio (DHCP-treated/control),[3]; gene rpmE (Ribosomal protein L31),0.39
same,Ratio (DHCP-treated/control),[3]; gene rpoS (RNP polymerase sigma factor RpoS),4
same,Ratio (DHCP-treated/control),[3]; gene sdaC (Probable serine transport protein),0.25
same,Ratio (DHCP-treated/control),[3]; gene secF (Secretion protein SecF),0.26
same,Ratio (DHCP-treated/control),[3]; gene secG (P12 cytoplasmic membrane protein),0.30
same,Ratio (DHCP-treated/control),[3]; gene secY (SecY protein),0.40
same,Ratio (DHCP-treated/control),[3]; gene tsr (Methyl-accepting chemotaxis protein1(mcp-1)),0.22
same,Ratio (DHCP-treated/control),[3]; gene tsx (Nucleoside-specific channel-forming protein),0.22
same,Ratio (DHCP-treated/control),[3]; gene wrbA (Trp repressor binding protein),14.00
same,Ratio (DHCP-treated/control),[3]; gene yieI (unknown function or class),4
same,Ratio (DHCP-treated/control),[3]; gene znu (High-affinity zinc uptake system protein),0.13
same,Induction of CreBC-regulated genes,"[3]; genes ackA, pta, radc, malE and trgB",not induced
same,Induction of genes,"[3]; genes astD, tnaB and gabT",not induced
same,Effect on mRNA levels,[3]; genes cysG and cysS (not in Cys regulon),not affected
same,Decrease of mRNA levels,[3]; genes encoding outer membrane proteins (Omp),5-15 times
same,Decrease of mRNA levels,"[3]; genes motA, motB and cheA (motor action)",4-6 times
same,Change of mRNA levels,[3]; genes parc and parE (topoisomerase IV subunits),did not change
same,Change of mRNA levels,"[3]; genes rfa, wzb or hha",did not change significantly
same,Reduction of mRNA levels,[3]; most of the genes encoding ribosomal L proteins,2-3 times
